# Patent US10149809B2, “Skin aging inhibitor and concentrate of resveratrol 3-O-α-glucoside” (priority 2014, dated 2018)
# Legend:
# [1] = system: matrix metalloproteinase 9 (MMP9) gene; experiment: MMP9 gene expression in the epidermis (three-dimensional human skin model); assay type: cell-based; details: 100 μL, 8 hours, distilled water control = 100%
# Procedure: Using a three-dimensional human skin model, the effect of resveratrol 3-O-α-glucoside on the matrix metalloproteinase 9 (MMP9) gene expression in the epidermis was investigated.
# An aqueous solution containing resveratrol 3-O-α-glucoside at a concentration of 0.02 or 0.1 wt %, or containing resveratrol 3-O-β-glucoside at a concentration of 0.02 wt % was prepared, and the resulting solution was used as a sample solution. One-hundred microliters of the sample solution were administered to the horny layer side of the human skin model (EpiDerm EPI-200; MatTek), and cultured in 5 mL of a special medium (EPI-100-ASY) at 37° C. for 8 hours. After the culture, total RNA was extracted from the skin model, and the level of expression of the MMP9 gene was quantified by real time PCR. As a control group, distilled water was administered to a skin model instead of the sample solution, and total RNA collected from the skin model was used.
# Taking as 100% the level of expression of the MMP9 gene for the control group, a relative ratio of the expression level of the MMP9 gene for the resveratrol 3-O-α-glucoside- or resveratrol 3-O-β-glucoside-supplemented group (MMP9 gene expression ratio, %) was determined. In the measurement of the expression level of the MMP9 gene, PPIA was used for internal standard correction.
# [2] = system: skin model (EPI-200X; MatTek); assay type: in vitro ADME, human
# Procedure: Using a three-dimensional human skin model, permeabilities of resveratrol 3-O-α-glucoside and resveratrol into the skin model when administered via the skin surface were compared.
# Resveratrol 3-O-α-glucoside or resveratrol (Tokyo Chemical Industry Co., Ltd.) was prepared into a 0.2 wt % solution or suspension with the addition of PBS, and the resulting solution was used as a test substance. The skin model (EPI-200X; MatTek) was loaded into a special fixture (EPI-100-FIX; MatTek), and placed in the 6-well plate of the receiver. One-hundred microliters of the test substance were added to the horny layer side, and 5 mL of PBS was added to the receiver side. After being allowed to stand at 37° C. for 20 hours, the skin model was collected, and the surface of the skin model was washed well with PBS. The skin model after being washed was homogenized in PBS. After the homogenate was centrifuged, resveratrols in the supernatant were quantified using HPLC under the same conditions as described in Production Example 1 above, and the amount of resveratrols was converted into the equivalent of agly cones.
# [3] = Solubility in solvent containing ethanol; assay type: physicochemical
# Procedure: (§1) Approximately 40 mg each of resveratrol 3-O-α-glucoside, resveratrol (Tokyo Chemical Industry Co., Ltd.), and resveratrol 3-O-β-glucoside (Tokyo Chemical Industry Co., Ltd.) was weighed, approximately 70 mg of a solvent (whose composition is shown in Table 18) containing ethanol (Wako Pure Chemical Industries, Ltd.) was added thereto, and the mixture was soaked in a water bath at 25° C. under light-tight conditions, and incubated for 15 hours with occasional stirring. After 15 hours, each of the samples was filtered through a 0.45 μm centrifugal filter, and then the concentration of each of the components in the filtrate was analyzed using HPLC under the same conditions as those described in Production Example 1 above. The dissolved concentration (w/v %) at 25° C. was thus determined.
# [4] = Solubility in solvent containing glycerol; assay type: physicochemical
# Procedure: as §1
# The solubility of resveratrol 3-O-α-glucoside was evaluated under the same conditions as those described in Example 18 above, except that a solvent (whose composition is shown in Table 19) containing glycerol (Wako Pure Chemical Industries, Ltd.) was used.
# [5] = Solubility in solvent containing propylene glycol; assay type: physicochemical
# Procedure: as §1
# The solubility of resveratrol 3-O-α-glucoside was evaluated under the same conditions as those described in Example 18 above, except that a solvent (whose composition is shown in Table 20) containing propylene glycol (Wako Pure Chemical Industries, Ltd.) was used.
# [6] = Solubility in solvent containing 1,3-butylene glycol; assay type: physicochemical
# Procedure: as §1
# The solubility of resveratrol 3-O-α-glucoside was evaluated under the same conditions as those described in Example 18 above, except that a solvent (whose composition is shown in Table 21) containing 1,3-butylene glycol (Wako Pure Chemical Industries, Ltd.) was used.
# [7] = Solubility in solvent containing dipropylene glycol; assay type: physicochemical
# Procedure: as §1
# The solubility of resveratrol 3-O-α-glucoside was evaluated under the same conditions as those described in Example 18 above, except that a solvent (whose composition is shown in Table 22) containing dipropylene glycol (Asahi Glass Co., Ltd.) was used.
# [8] = Solubility in solvent containing 1,2-pentanediol; assay type: physicochemical
# Procedure: as §1
# The solubility of resveratrol 3-O-α-glucoside was evaluated under the same conditions as those described in Example 18 above, except that a solvent (whose composition is shown in Table 23) containing 1,2-pentanediol (Kankosha Co., Ltd.) was used.
# Solubility in water = assay type: physicochemical
# Procedure: as §1, with “5” for “40”, “1 mL” for “70 mg”, “water” for “a solvent (whose composition is shown in Table 18) containing ethanol (Wako Pure Chemical Industries, Ltd.)”, “20” for “15”, “%) in water” for “%)”
# [9] = EpiDerm EPI-200, 0.02 wt % aqueous solution
compound,measurement,setting,value
"OC[C@H]1O[C@H](Oc2cc(O)cc(C=Cc3ccc(O)cc3)c2)[C@H](O)[C@@H](O)[C@@H]1O [Resveratrol 3-O-α-Glucoside, resveratrol 3-O-α-glucoside]",MMP9 Gene Expression Ratio (%),[1]; [9],85%
same,MMP9 Gene Expression Ratio (%),"[1]; EpiDerm EPI-200, 0.1 wt % aqueous solution",66%
same,amount of permeation into the skin model relative to resveratrol,[2],3.5 times
same,dissolved concentration,[3],exceeded 30 w/v %
same,Dissolved Concentration (w/v %) at 25° C.,[3]; 15 h,0.3 w/v %
same,dissolved concentration,[4],exceeded 20 w/v %
same,dissolved concentration,[5],exceeded 30 w/v %
same,Dissolved Concentration (w/v %) at 25° C.,[5]; 15 h,0.3 w/v %
same,dissolved concentration,[6],exceeded 20 w/v %
same,dissolved concentration,[7],exceeded 30 w/v %
same,dissolved concentration,[8],exceeded 20 w/v %
same,Dissolved Concentration (μg/mL) in Water,Solubility in water; 20 h,2900 µg/mL
"OC[C@H]1O[C@@H](Oc2cc(O)cc(/C=C/c3ccc(O)cc3)c2)[C@H](O)[C@@H](O)[C@@H]1O [Resveratrol 3-O-β-Glucoside, resveratrol 3-O-β-glucoside]",MMP9 Gene Expression Ratio (%),[1]; [9],124%
same,Dissolved Concentration (w/v %) at 25° C.,"[3]; Ethanol:Water 0:100 (weight ratio), 15 hours",0.04 w/v %
same,Dissolved Concentration (w/v %) at 25° C.,"[3]; Ethanol:Water 5:95 (weight ratio), 15 hours",0.05 w/v %
same,Dissolved Concentration (w/v %) at 25° C.,"[3]; Ethanol:Water 10:90 (weight ratio), 15 hours",0.06 w/v %
same,Dissolved Concentration (w/v %) at 25° C.,"[3]; Ethanol:Water 15:85 (weight ratio), 15 hours",0.1 w/v %
same,Dissolved Concentration (w/v %) at 25° C.,"[3]; Ethanol:Water 20:80 (weight ratio), 15 hours",0.2 w/v %
same,Dissolved Concentration (w/v %) at 25° C.,"[3]; Ethanol:Water 25:75 (weight ratio), 15 hours",0.4 w/v %
same,Dissolved Concentration (w/v %) at 25° C.,"[3]; Ethanol:Water 30:70 (weight ratio), 15 hours",0.7 w/v %
same,Dissolved Concentration (w/v %) at 25° C.,"[3]; Ethanol:Water 40:60 (weight ratio), 15 hours",2.6 w/v %
same,Dissolved Concentration (w/v %) at 25° C.,"[3]; Ethanol:Water 50:50 (weight ratio), 15 hours",5.3 w/v %
same,Dissolved Concentration (w/v %) at 25° C.,"[3]; Ethanol:Water 75:25 (weight ratio), 15 hours",13.8 w/v %
same,Dissolved Concentration (w/v %) at 25° C.,"[3]; Ethanol:Water 90:10 (weight ratio), 15 hours",7.3 w/v %
same,Dissolved Concentration (w/v %) at 25° C.,"[3]; Ethanol:Water 100:0 (weight ratio), 15 hours",2.4 w/v %
same,Dissolved Concentration (w/v %) at 25° C.,[4]; Glycerol:Water 0:100 (weight ratio),0.04 w/v %
same,Dissolved Concentration (w/v %) at 25° C.,[4]; Glycerol:Water 10:90 (weight ratio),0.05 w/v %
same,Dissolved Concentration (w/v %) at 25° C.,[4]; Glycerol:Water 25:75 (weight ratio),0.09 w/v %
same,Dissolved Concentration (w/v %) at 25° C.,[4]; Glycerol:Water 50:50 (weight ratio),0.3 w/v %
same,Dissolved Concentration (w/v %) at 25° C.,[4]; Glycerol:Water 75:25 (weight ratio),1.1 w/v %
same,Dissolved Concentration (w/v %) at 25° C.,[4]; Glycerol:Water 90:10 (weight ratio),1.9 w/v %
same,Dissolved Concentration (w/v %) at 25° C.,[4]; Glycerol:Water 100:0 (weight ratio),3.1 w/v %
same,Dissolved Concentration (w/v %) at 25° C.,[5]; Propylene Glycol:Water 0:100 (weight ratio),0.04 w/v %
same,Dissolved Concentration (w/v %) at 25° C.,[5]; Propylene Glycol:Water 5:95 (weight ratio),0.04 w/v %
same,Dissolved Concentration (w/v %) at 25° C.,[5]; Propylene Glycol:Water 10:90 (weight ratio),0.06 w/v %
same,Dissolved Concentration (w/v %) at 25° C.,[5]; Propylene Glycol:Water 15:85 (weight ratio),0.09 w/v %
same,Dissolved Concentration (w/v %) at 25° C.,[5]; Propylene Glycol:Water 20:80 (weight ratio),0.1 w/v %
same,Dissolved Concentration (w/v %) at 25° C.,[5]; Propylene Glycol:Water 25:75 (weight ratio),0.2 w/v %
same,Dissolved Concentration (w/v %) at 25° C.,[5]; Propylene Glycol:Water 50:50 (weight ratio),3.3 w/v %
same,Dissolved Concentration (w/v %) at 25° C.,[5]; Propylene Glycol:Water 75:25 (weight ratio),11.5 w/v %
same,Dissolved Concentration (w/v %) at 25° C.,[5]; Propylene Glycol:Water 90:10 (weight ratio),12.5 w/v %
same,Dissolved Concentration (w/v %) at 25° C.,[5]; Propylene Glycol:Water 100:0 (weight ratio),11.3 w/v %
same,Dissolved Concentration (w/v %) at 25° C.,"[6]; 1,3-Butylene Glycol:Water 0:100 (weight ratio)",0.04 w/v %
same,Dissolved Concentration (w/v %) at 25° C.,"[6]; 1,3-Butylene Glycol:Water 5:95 (weight ratio)",0.04 w/v %
same,Dissolved Concentration (w/v %) at 25° C.,"[6]; 1,3-Butylene Glycol:Water 10:90 (weight ratio)",0.07 w/v %
same,Dissolved Concentration (w/v %) at 25° C.,"[6]; 1,3-Butylene Glycol:Water 15:85 (weight ratio)",0.1 w/v %
same,Dissolved Concentration (w/v %) at 25° C.,"[6]; 1,3-Butylene Glycol:Water 20:80 (weight ratio)",0.2 w/v %
same,Dissolved Concentration (w/v %) at 25° C.,"[6]; 1,3-Butylene Glycol:Water 25:75 (weight ratio)",0.3 w/v %
same,Dissolved Concentration (w/v %) at 25° C.,"[6]; 1,3-Butylene Glycol:Water 50:50 (weight ratio)",2.8 w/v %
same,Dissolved Concentration (w/v %) at 25° C.,"[6]; 1,3-Butylene Glycol:Water 75:25 (weight ratio)",7.5 w/v %
same,Dissolved Concentration (w/v %) at 25° C.,"[6]; 1,3-Butylene Glycol:Water 90:10 (weight ratio)",9.7 w/v %
same,Dissolved Concentration (w/v %) at 25° C.,"[6]; 1,3-Butylene Glycol:Water 100:0 (weight ratio)",7.2 w/v %
same,Dissolved Concentration (w/v %) at 25° C.,[7]; Dipropylene Glycol:Water 0:100 (weight ratio),0.04 w/v %
same,Dissolved Concentration (w/v %) at 25° C.,[7]; Dipropylene Glycol:Water 5:95 (weight ratio),0.06 w/v %
same,Dissolved Concentration (w/v %) at 25° C.,[7]; Dipropylene Glycol:Water 10:90 (weight ratio),0.1 w/v %
same,Dissolved Concentration (w/v %) at 25° C.,[7]; Dipropylene Glycol:Water 15:85 (weight ratio),0.3 w/v %
same,Dissolved Concentration (w/v %) at 25° C.,[7]; Dipropylene Glycol:Water 20:80 (weight ratio),0.5 w/v %
same,Dissolved Concentration (w/v %) at 25° C.,[7]; Dipropylene Glycol:Water 25:75 (weight ratio),0.9 w/v %
same,Dissolved Concentration (w/v %) at 25° C.,[7]; Dipropylene Glycol:Water 50:50 (weight ratio),11.5 w/v %
same,Dissolved Concentration (w/v %) at 25° C.,[7]; Dipropylene Glycol:Water 75:25 (weight ratio),26.1 w/v %
same,Dissolved Concentration (w/v %) at 25° C.,[7]; Dipropylene Glycol:Water 90:10 (weight ratio),23.9 w/v %
same,Dissolved Concentration (w/v %) at 25° C.,[7]; Dipropylene Glycol:Water 100:0 (weight ratio),15.0 w/v %
same,Dissolved Concentration (w/v %) at 25° C.,"[8]; 1,2-Pentanediol:Water 0:100 (weight ratio)",0.04 w/v %
same,Dissolved Concentration (w/v %) at 25° C.,"[8]; 1,2-Pentanediol:Water 10:90 (weight ratio)",0.2 w/v %
same,Dissolved Concentration (w/v %) at 25° C.,"[8]; 1,2-Pentanediol:Water 25:75 (weight ratio)",2.3 w/v %
same,Dissolved Concentration (w/v %) at 25° C.,"[8]; 1,2-Pentanediol:Water 50:50 (weight ratio)",7.5 w/v %
same,Dissolved Concentration (w/v %) at 25° C.,"[8]; 1,2-Pentanediol:Water 75:25 (weight ratio)",11.3 w/v %
same,Dissolved Concentration (w/v %) at 25° C.,"[8]; 1,2-Pentanediol:Water 90:10 (weight ratio)",9.4 w/v %
same,Dissolved Concentration (w/v %) at 25° C.,"[8]; 1,2-Pentanediol:Water 100:0 (weight ratio)",4.6 w/v %
same,Dissolved Concentration (μg/mL) in Water,"Solubility in water; water, 25° C., 20 hours",370 µg/mL
